Laboratory results published in patent US20260265195A1, “SARM1 MODULATORS, PREPARATIONS, AND USES THEREOF” (SIRONAX LTD, priority 2022, published 2026).

Target: T1, SARM1 (50-724) (Homo sapiens, UniProt Q6SZW1)
T1 construct: Purified SARM1 (50-724) with a final concentration of 2 nM
T1 sequence (Q6SZW1 50-724): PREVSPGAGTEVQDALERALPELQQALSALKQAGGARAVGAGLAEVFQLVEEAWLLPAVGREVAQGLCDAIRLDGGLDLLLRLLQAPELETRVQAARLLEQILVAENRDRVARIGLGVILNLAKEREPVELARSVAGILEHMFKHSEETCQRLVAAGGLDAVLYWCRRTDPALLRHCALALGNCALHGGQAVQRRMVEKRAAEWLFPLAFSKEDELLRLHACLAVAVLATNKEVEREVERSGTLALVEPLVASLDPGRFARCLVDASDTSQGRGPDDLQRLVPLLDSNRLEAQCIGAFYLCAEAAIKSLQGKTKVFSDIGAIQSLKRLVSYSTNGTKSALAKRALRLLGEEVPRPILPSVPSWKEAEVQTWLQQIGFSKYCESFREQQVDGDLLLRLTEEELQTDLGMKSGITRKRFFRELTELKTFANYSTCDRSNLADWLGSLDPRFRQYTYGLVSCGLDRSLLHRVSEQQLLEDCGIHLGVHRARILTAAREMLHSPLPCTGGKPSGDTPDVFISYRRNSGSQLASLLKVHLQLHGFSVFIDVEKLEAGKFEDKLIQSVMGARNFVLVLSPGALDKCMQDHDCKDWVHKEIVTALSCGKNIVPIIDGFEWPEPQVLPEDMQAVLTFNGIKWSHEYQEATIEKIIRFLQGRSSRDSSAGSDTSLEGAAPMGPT
Experiment: SARM1 (50-724) enzymatic assay (NMN-activated NAD+ hydrolysis, LC-MS/MS readout)
Assay type: biochemical
Conditions: purified SARM1 (50-724) 2 nM, 200 μM NMN activator, 100 μM NAD+ substrate, 1 h at room temperature, read-out: IC50 (SARM1 inhibitory activity)
Method: Example II. SARM1 (50-724) Enzymatic Assay
An enzymatic assay was performed in a 384-well plate using Dulbecco's phosphate-buffered saline (PBS) as the reaction buffer. Purified SARM1 (50-724) with a final concentration of 2 nM was pre-incubated with a test compound at 1% DMSO final assay concentration for 15 min at room temperature. The reaction was initiated by adding a mixture of 200 μM nicotinamide mononucleotide (NMN) as activator and 100 μM NAD^+ as substrate. After 1 h of incubation at room temperature, the reaction was terminated with 10 times volume of 70% acetonitrile, then centrifuged at 3800 rpm for 10 min. The samples were analyzed using LC-MS/MS after diluted to a proper concentration by 10 mM ammonium acetate (pH 9.75).
ND means “not determined.”

Structure (SMILES): Cc1nc(C(=O)N(C)C2CCCC2)[nH]c1C [Compound 59, N-cyclopentyl-N,4,5-trimethyl-1H-imidazole-2-carboxamide]
- IC50: ≥ 1000 nM

Structure (SMILES): O=C(c1nc2cc(CO)ccc2[nH]1)N(CCO)c1cccc(Cl)c1Cl [Compound 171]
- IC50: 101 to 500 nM

Structure (SMILES): CN(C(=O)c1[nH]c2cc(Br)ccc2c1CO)C1CCCC1 [Compound 40, 6-bromo-N-cyclopentyl-3-(hydroxymethyl)-N-methyl-1H-indole-2-carboxamidc]
- IC50: ≥ 1000 nM

Structure (SMILES): COCCN(C(=O)c1nc2cc(C)ccc2[nH]1)C1CCCC1 [Compound 62, N-cyclopentyl-N-(2-methoxyethyl)-5-methyl-1H-benzo[d]imidazole-2-carboxamide]
- IC50: 101 to 500 nM

Structure (SMILES): CC(C)c1c[nH]c(C(=O)N(C)C2CCCC2)n1 [Compound 57, N-cyclopentyl-4-isopropyl-N-methyl-1H-imidazole-2-carboxamide]
- IC50: ≥ 1000 nM

Structure (SMILES): CC(=O)NCCN(C(=O)c1nc2cc(C(F)(F)F)ccc2[nH]1)c1cccc(Cl)c1Cl [Compound 146, N-(2-acctamidoethyl)-N-(2,3-dichlorophenyl)-5-(trifluoromethyl)-1H-benzo[d]imidazole-2-carboxamide]
- IC50: ≤ 100 nM

Structure (SMILES): O=C(c1nc2cc(C(F)(F)F)ccc2[nH]1)N(CC(F)(F)C(=O)O)c1cccc(Cl)c1Cl [Compound 106, 3-(N-(2,3-dichlorophenyl)-6-(trifluoromethyl)-1H-benzo[d]imidazole-2-carboxamido)-2,2-difluoropropanoic acid]
- IC50: ≤ 100 nM

Structure (SMILES): O=C(c1nc2cc(C(F)(F)F)ccc2[nH]1)N(CC1(O)CC1)c1cccc(Cl)c1Cl [Compound 197, N-(2,3-dichlorophenyl)-N-((1-hydroxycyclopropyl)methyl)-5-(trifluoromethyl)-1H-benzo[d]imidazole-2-carboxamide]
- IC50: ≤ 100 nM

Structure (SMILES): Cn1cc(-c2ccc3[nH]c(C(=O)N(CCO)c4cccc(Cl)c4Cl)nc3c2)cn1 [Compound 139, N-(2,3-dichlorophenyl)-N-(2-hydroxyethyl)-5-(1-methyl-1H-pyrazol-4-yl)-1H-benzo[d]imidazole-2-carboxamide]
- IC50: 101 to 500 nM

Structure (SMILES): Cn1nc(Cl)c(Cl)c1N(CCO)C(=O)c1nc2cc(C(F)(F)F)ccc2[nH]1 [Compound 126, N-(3,4-dichloro-1-methyl-1H-pyrazol-5-yl)-N-(2-hydroxyethyl)-5-(trifluoromethyl)-1H-benzo[d]imidazole-2-carboxamide]
- IC50: ≥ 1000 nM

Structure (SMILES): Cc1ccc2[nH]c(C(=O)N(C)C3CCCC3)c(CNc3ncco3)c2c1 [Compound 80, N-cyclopentyl-N,5-dimethyl-3-((oxazol-2-ylamino)methyl)-1H-indole-2-carboxamide]
- IC50: ≤ 100 nM

Structure (SMILES): Cc1ccc2[nH]c(C(=O)N(C)C3CCCC3)c(CNc3cncs3)c2c1 [Compound 78, N-cyclopentyl-N,5-dimethyl-3-((thiazol-5-ylamino)methyl)-1H-indole-2-carboxamide]
- IC50: 101 to 500 nM

Structure (SMILES): O=C(c1nc2cc(C(F)(F)F)ccc2[nH]1)N(CCO)c1nccc(Cl)c1Cl [Compound 100, N-(3,4-dichloropyridin-2-yl)-N-(2-hydroxyethyl)-5-(trifluoromethyl)-1H-benzo[d]imidazole-2-carboxamide]
- IC50: ≤ 100 nM

Structure (SMILES): C[S+]([O-])CCCN(C(=O)c1nc2cc(C(F)(F)F)ccc2[nH]1)c1cccc(F)c1Cl (racemic) [Compound 230, N-(2-chloro-3-fluorophenyl)-N-(3-(methylsulfinyl)propyl)-5-(trifluoromethyl)-1H-benzo[d]imidazole-2-carboxamide]
- IC50: ≤ 100 nM

Structure (SMILES): CN(C(=O)c1nc2ccccc2[nH]1)C1CCCC1 [Compound 51, N-cyclopentyl-N-methyl-1H-benzo[d]imidazole-2-carboxamide]
- IC50: ≥ 1000 nM

Structure (SMILES): Cc1c(F)cncc1N(CCO)C(=O)c1nc2cc(C(F)(F)F)ccc2[nH]1 [compound 169]
- IC50: 101 to 500 nM

Structure (SMILES): Cc1ccc2[nH]c(C(=O)N(C)c3ccccn3)c(CO)c2c1 [Compound 4, 3-(hydroxymethyl)-N,5-dimethyl-N-(pyridin-2-yl)-1H-indole-2-carboxamide]
- IC50: ≥ 1000 nM

Structure (SMILES): Cc1ccc2[nH]c(C(=O)N(C)c3ccc(C#N)cc3)c(CO)c2c1 [Compound 3, N-(4-cyanophenyl)-3-(hydroxymethyl)-N,5-dimethyl-1H-indole-2-carboxamide]
- IC50: ≥ 1000 nM

Structure (SMILES): O=C(c1nc2cc(C(F)(F)F)ccc2[nH]1)N(CCC1CNC1)c1cccc(Cl)c1Cl [Compound 134, N-(2-(azetidin-3-yl)ethyl)-N-(2,3-dichlorophenyl)-5-(trifluoromethyl)-1H-benzo[d]imidazole-2-carboxamide]
- IC50: 101 to 500 nM

Structure (SMILES): Cc1ccc2[nH]c(C(=O)NC3CCCC3)c(CO)c2c1 [Compound 26, N-cyclopenty1-3-(hydroxymethyl)-5-methyl-1H-indole-2-carboxamide]
- IC50: ≥ 1000 nM

Structure (SMILES): O=C(c1nc2cc(C(F)(F)F)ccc2[nH]1)N(CC(F)(F)CO)c1cc(F)cc(F)c1Cl [Compound 218, N-(2-chloro-3,5-difluorophenyl)-N-(2,2-difluoro-3-hydroxypropyl)-5-(trifluoromethyl)-1H-benzo[d]imidazole-2-carboxamide]
- IC50: ≤ 100 nM

Structure (SMILES): Cc1cn[nH]c1-c1ccc2[nH]c(C(=O)N(CC3COC3)c3cccc(Cl)c3Cl)nc2c1 [Compound 124]
- IC50: ≥ 1000 nM

Structure (SMILES): NC(=O)C(F)(F)CN(C(=O)c1nc2cc(Cl)cc(F)c2[nH]1)c1cccc(F)c1Cl [Compound 234]
- IC50: ≤ 100 nM

Structure (SMILES): Cc1ccc2[nH]c(C(=O)N(C)C3CCCCC3)c(CNc3ccccn3)c2c1 [Compound 91, N-cyclohexyl-N,5-dimethyl-3-((pyridin-2-ylamino)methyl)-1H-indole-2-carboxamide]
- IC50: 101 to 500 nM

Structure (SMILES): Cc1ccc(N(C)C(=O)c2[nH]c3ccc(C)cc3c2CO)cc1 [Compound 44, 3-(hydroxymethyl)-N,5-dimethyl-N-(p-tolyl)-1H-indole-2-carboxamide]
- IC50: ≥ 1000 nM

Structure (SMILES): O=C(c1nc2cc(Cl)cc(F)c2[nH]1)N(CC(F)(F)CO)c1ccc(F)c(F)c1Cl [Compound 233]
- IC50: ≤ 100 nM

Structure (SMILES): NC(=O)C(F)(F)CN(C(=O)c1nc2cc(C(F)(F)F)ccc2[nH]1)c1cccc(Cl)c1Cl [Compound 107, N-(3-amino-2,2-difluoro-3-oxopropyl)-N-(2,3-dichlorophenyl)-5-(trifluoromethyl)-1H-benzo[d]imidazole-2-carboxamide]
- IC50: ≤ 100 nM

Structure (SMILES): CN(C(=O)c1nc2cc(C(F)(F)F)ccc2[nH]1)C1CCCC1 [Compound 48, N-cyclopentyl-N-methyl-5-(trifluoromethyl)-1H-benzo[d]imidazole-2-carboxamide]
- IC50: ≤ 100 nM

Structure (SMILES): Cc1c(Cl)cccc1N(CCO)C(=O)c1nc2cc(C(F)(F)F)ccc2[nH]1 [Compound 137, N-(3-chloro-2-methylphenyl)-N-(2-hydroxyethyl)-5-(trifluoromethyl)-1H-benzo[d]imidazole-2-carboxamide]
- IC50: ≤ 100 nM

Structure (SMILES): Cc1ccc2[nH]c(C(=O)N(C)C3CCN(C(=O)OC(C)(C)C)CC3)c(CNc3ccccn3)c2c1 [Compound 85, tert-butyl 4-(N,5-dimethyl-3-((pyridin-2-ylamino)methyl)-1H-indole-2-carboxamido)piperidine-1-carboxylate]
- IC50: ≥ 1000 nM

Structure (SMILES): NC(=O)C(F)(F)CN(C(=O)c1nc2cc(Cl)cc(F)c2[nH]1)c1ccc(F)c(F)c1Cl [Compound 231]
- IC50: ≤ 100 nM

Structure (SMILES): Cc1ccc2[nH]c(C(=O)N(C)C3CCCC3)c(CC(N)=O)c2c1 [Compound 16, 3-(2-amino-2-oxoethyl)-N-cyclopentyl-N,5-dimethyl-1H-indole-2-carboxamide]
- IC50: 501 to 1000 nM

Structure (SMILES): O=C(c1nc2cc(C(F)(F)F)ccc2[nH]1)N(CC(F)(F)CO)c1ccc(F)c(F)c1Cl [Compound 212, N-(2-chloro-3,4-difluorophenyl)-N-(2,2-difluoro-3-hydroxypropyl)-5-(trifluoromethyl)-1H-benzo[d]imidazole-2-carboxamide]
- IC50: ≤ 100 nM

Structure (SMILES): Cc1ccc2[nH]c(C(=O)N(C)c3cccnc3)c(CO)c2c1 [Compound 22, 3-(hydroxymethyl)-N,5-dimethyl-N-(pyridin-3-yl)-1H-indole-2-carboxamide]
- IC50: ≥ 1000 nM

Structure (SMILES): Cc1ccc2[nH]c(C(=O)N(CCO)c3cccc(Cl)c3Cl)nc2c1 [Compound 98, N-(2,3-dichlorophenyl)-N-(2-hydroxyethyl)-5-methyl-1H-benzo[d]imidazole-2-carboxamide]
- IC50: ≤ 100 nM

Structure (SMILES): O=C(c1nc2cc(C(F)(F)F)ccc2[nH]1)N(CCO)c1cnccc1C(F)(F)F [Compound 20, N-(2-hydroxyethyl)-5-(trifluoromethyl)-N-(4-(trifluoromethyl)pyridin-3-yl)-1H-benzo[d]imidazole-2-carboxamide]
- IC50: ≤ 100 nM
